The text below walks through data of paper PMC12736194, “1-Azinyl-1′-Alkenylferrocenes with Anticholinesterase, Antioxidant, and Antiaggregating Activities as Multifunctional Agents for Potential Treatment of Alzheimer’s Disease” (Pharmaceuticals, 2025).

A short description of data set [1]: Ferric reducing antioxidant power (FRAP) assay. Conditions: Trolox equivalents; acetate buffer pH 3.6, 1 h, 37 °C.
Data set [2] has as its target T1, peripheral anionic site (PAS) of Electrophorus electricus AChE (EeAChE) (Electrophorus electricus, UniProt O42275).
T1 construct: purchased Sigma-Aldrich type VI-S
As to the kind of experiment: Propidium displacement from the EeAChE PAS (fluorescence). The class given is binding. Conditions: compound concentration 20 µM; EeAChE 7 μM, propidium iodide 8 μM, Tris-HCl pH 8.0; n.a. = not active. Here is the method: A fluorescence-based assay assessed the ability of test compounds to competitively displace propidium iodide from AChE’s PAS [65, 93]. […] EeAChE (7 μM) was incubated with 20 μM test compounds in Tris-HCl buffer (pH 8.0) for 15 min, followed by addition of propidium iodide (8 μM) as described in detail in [95]. Fluorescence readings (530 nm excitation, 600 nm emission) were obtained using a FLUOStar Optima microplate reader (LabTech, Ortenberg, Germany). Displacement (%) was calculated.

For data set [3], the system named is human neuroblastoma cell cultures (SH-SY5Y). As to the kind of experiment: Cytotoxicity, MTT test, SH-SY5Y. The conditions noted are these: read-out: Cytotoxic activity, LC50, SH-SY5Y, 24 h, 1 to 1024 μM, mean ± SE, n = 3. The procedure: (§1) Cytotoxic activity was assessed using the MTT test. […] For each compound, the half-lethal concentration parameter LC50 (μM) was calculated.
(§2) This study employed SH-SY5Y neuroblastoma cells and dental pulp-derived mesenchymal stem cells (MSC-DP). Cells were cultured in DMEM/F12 with 10% (v/v) FBS under standard conditions. MSC-DP were reprogrammed into neuronal-like cells (MSC-Neu) using Neurobasal medium with addition of Neuromax and 3% (v/v) FBS for 5 days.
(§3) The cytotoxic effect of Fcs was assessed using the Mossman test for cellular dehydrogenase activity (MTT test). […] For each compound, the half-lethal concentration parameter (LC50) in μM was calculated as described previously.
In general terms: Formazan colour is commonly taken as a measure of viable cells.

Data set [4] deals with T2, human β-amyloid (1–42) (HsAβ42) (Homo sapiens, UniProt P05067).
T2 construct: purchased AnaSpec Inc
As to the kind of experiment: Inhibition of HsAβ42 self-aggregation (thioflavin T fluorescence). The conditions noted are these: HsAβ42 50 µM, compound 100 µM, 24 h, 37 °C; n.a. = not active. The class given is biochemical. The procedure: The potential of compounds from all three groups (1a-e, 5a-e, 7a-d) to inhibit HsAβ42 self-aggregation was evaluated using a Thioflavin T (ThT) fluorescence assay.
Inhibition of HsAβ42 self-aggregation by test compounds was studied using the thioflavin T (ThT) fluorescence method with minor modifications as described in detail in [79]. Lyophilized HFIP-pretreated HsAβ42 (AnaSpec Inc., Fremont, CA, USA, 0.5 mg) was dissolved in DMSO to obtain a stable 500 μM solution. The samples of 50 μM HsAβ42 in 215 mM Na-phosphate buffer pH 8.0 were incubated for 24 h at 37 °C in the absence or presence of 100 μM test compounds. Myricetin in the same concentration was used as a reference. After incubation, 5 μM ThT in 50 mM glycine-NaOH buffer pH 8.5 was added, and the fluorescence was measured at 440 nm (exc.) and 485 nm (emis.) with a FLUOStar Optima microplate reader. Blanks consisted of 215 mM Na-phosphate buffer, pH 8.0, 20% (v/v) DMSO or test compounds, respectively. The inhibition (%) of HsAβ42 self-aggregation by the test compounds was calculated.

Data set [5] concerns reprogrammed human neuronal cell cultures (MSC-Neu). As to the kind of experiment: Cytotoxicity, MTT test, MSC-Neu. Conditions: read-out: Cytotoxic activity, LC50, MSC-Neu, 24 h, 1 to 1024 μM, mean ± SE, n = 3. Here is the method:
as §1, §2, §3

Data set [6] deals with T3, equine (Equus caballus) serum BChE (EcBChE) (Equus caballus, UniProt P81908).
T3 construct: equine (Equus caballus) serum BChE (EcBChE); purchased Sigma-Aldrich; host or cells: horse serum
Put plainly: Inhibition of EcBChE (spectrophotometric, BTCh iodide substrate). Format: biochemical. Conditions: mean ± SEM, n = 3; for IC50: K/Na-phosphate buffer pH 7.5, 25 °C. The procedure:
(§4) In these experiments, human (Homo sapiens) erythrocyte AChE (HsAChE), equine (Equus caballus) serum BChE (EcBChE), and porcine (Sus scrofa) liver CES (SsCES) were used because of their ready availability, relatively low cost, and high sequence homology of EcBChE and SsCES to the corresponding human enzymes.
(§5) Enzymes, substrates, and reference compounds were sourced from Sigma-Aldrich (St. Louis, MO, USA). Enzyme activity was measured spectrophotometrically according to [91] using ATCh iodide, BTCh iodide, and 4-NPA as substrates for HsAChE, EcBChE, and SsCES, respectively. Experimental conditions included a K/Na-phosphate buffer (100 mM), at 25 °C, with pH 7.5 for AChE and BChE assays, and pH 8.0 for CES assays. Measurements were conducted on a BioRad Benchmark Plus microplate spectrophotometer (Hercules, CA, USA). Test compounds were dissolved in DMSO with a final solvent concentration of 2% (v/v) in the incubation mixture.

Data set [7] concerns the target T4, human (Homo sapiens) erythrocyte AChE (HsAChE) (Homo sapiens, UniProt P22303).
T4 construct: human (Homo sapiens) erythrocyte AChE (HsAChE); purchased Sigma-Aldrich; host or cells: human erythrocytes
Put plainly: Inhibition of HsAChE (spectrophotometric, ATCh iodide substrate). The conditions noted are these: mean ± SEM, n = 3; for IC50: K/Na-phosphate buffer pH 7.5, 25 °C. The class given is biochemical. The procedure: as §4, §5

Data set [8] in a line: ABTS radical cation scavenging activity assay.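 For Exp. ABTS, TEAC: same experimental ABTS TEAC values reprinted in Table 4 beside calculated BDE and IP.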 The conditions noted are these: for IC50: ABTS^•+ 100 μM; for IC50 / ABTS^•+-Scavenging Activity, TEAC: ethanol, 1 h; for ABTS^•+-Scavenging Activity, TEAC: Trolox equivalent antioxidant capacity, mean ± SEM, n = 3.
Data set [9] has as its system porcine (Sus scrofa) liver CES (SsCES). Put plainly: Inhibition of SsCES (spectrophotometric, 4-NPA substrate). Format: biochemical. The conditions noted are these: compound 20 μM; n.a. = not active; mean ± SEM, n = 3.
From the text: as §4
Although the dominant carboxylesterase in porcine liver is CES1 [64], the preparation sourced from Sigma-Aldrich is not a purified or recombinant CES1. Therefore, we have designated the preparation used in our experimental studies as SsCES. However, in computational molecular docking studies, it is necessary to choose a single defined protein as the docking target. Thus, the logical choice for our computational studies of CES was the most abundant and best characterized isoform found in porcine liver, which is SsCES1.
as §5

For another data set, the system named is MCF7 cell line. The conditions noted are these: Figure 12; read-out: LC50, MCF7 cell line; cited from earlier work.
Where [10] appears, read: compound 20 μM, n.a. = not active.

T2 sequence (P05067 672-713 limits assumed): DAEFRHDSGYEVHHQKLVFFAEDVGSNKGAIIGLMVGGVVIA
T1 sequence (O42275 24-633): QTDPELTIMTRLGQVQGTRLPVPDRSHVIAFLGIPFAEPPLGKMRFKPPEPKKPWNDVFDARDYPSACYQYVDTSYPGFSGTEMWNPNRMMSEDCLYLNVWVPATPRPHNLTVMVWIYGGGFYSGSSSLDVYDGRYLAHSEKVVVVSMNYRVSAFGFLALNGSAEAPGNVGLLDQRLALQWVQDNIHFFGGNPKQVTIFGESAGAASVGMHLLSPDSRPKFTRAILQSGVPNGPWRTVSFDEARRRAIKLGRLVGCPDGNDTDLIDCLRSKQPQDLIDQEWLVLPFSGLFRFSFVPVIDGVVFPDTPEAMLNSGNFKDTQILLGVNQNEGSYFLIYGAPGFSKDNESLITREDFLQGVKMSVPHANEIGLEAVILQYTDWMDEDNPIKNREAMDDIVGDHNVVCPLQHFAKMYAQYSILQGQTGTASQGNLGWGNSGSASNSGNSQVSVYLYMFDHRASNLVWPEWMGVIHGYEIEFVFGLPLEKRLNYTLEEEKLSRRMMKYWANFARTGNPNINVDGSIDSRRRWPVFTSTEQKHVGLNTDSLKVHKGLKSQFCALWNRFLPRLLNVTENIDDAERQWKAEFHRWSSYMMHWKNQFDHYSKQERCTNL
T4 sequence (P22303 32-617 isoform P22303-2 limits assumed): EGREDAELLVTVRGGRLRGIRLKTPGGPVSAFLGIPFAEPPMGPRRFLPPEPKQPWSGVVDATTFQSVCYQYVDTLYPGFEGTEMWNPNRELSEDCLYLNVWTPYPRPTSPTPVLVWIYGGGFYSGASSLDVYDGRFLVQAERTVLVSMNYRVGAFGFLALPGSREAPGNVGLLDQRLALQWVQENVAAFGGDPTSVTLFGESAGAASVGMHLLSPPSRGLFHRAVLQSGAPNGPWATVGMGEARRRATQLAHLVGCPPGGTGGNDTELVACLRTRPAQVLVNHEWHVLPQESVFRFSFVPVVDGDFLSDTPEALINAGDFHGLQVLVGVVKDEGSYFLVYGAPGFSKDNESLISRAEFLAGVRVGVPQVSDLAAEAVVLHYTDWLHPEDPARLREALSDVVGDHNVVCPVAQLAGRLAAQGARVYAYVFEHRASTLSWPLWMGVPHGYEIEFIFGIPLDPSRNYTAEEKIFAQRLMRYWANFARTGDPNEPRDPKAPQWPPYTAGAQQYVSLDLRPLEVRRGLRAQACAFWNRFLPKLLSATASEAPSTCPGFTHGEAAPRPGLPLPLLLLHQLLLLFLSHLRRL
T3 sequence (P81908 whole entry): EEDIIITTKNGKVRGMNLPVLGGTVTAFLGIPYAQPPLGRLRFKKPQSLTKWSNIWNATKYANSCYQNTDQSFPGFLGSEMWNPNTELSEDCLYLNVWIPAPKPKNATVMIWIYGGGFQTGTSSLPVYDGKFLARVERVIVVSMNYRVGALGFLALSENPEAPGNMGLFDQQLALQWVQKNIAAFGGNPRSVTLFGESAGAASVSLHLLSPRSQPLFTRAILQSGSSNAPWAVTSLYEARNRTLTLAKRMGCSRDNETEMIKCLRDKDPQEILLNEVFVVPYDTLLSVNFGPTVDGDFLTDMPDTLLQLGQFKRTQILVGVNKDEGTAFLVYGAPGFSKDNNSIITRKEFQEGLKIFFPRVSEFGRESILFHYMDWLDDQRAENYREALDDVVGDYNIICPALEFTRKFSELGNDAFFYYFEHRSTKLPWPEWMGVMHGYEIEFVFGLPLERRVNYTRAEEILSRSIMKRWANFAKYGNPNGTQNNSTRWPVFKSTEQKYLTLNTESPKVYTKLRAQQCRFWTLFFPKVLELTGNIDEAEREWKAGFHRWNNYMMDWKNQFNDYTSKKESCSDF

As to `C=C(C)[c-]1cccc1.[Fe+2].c1ccc(-c2cccc(-[c-]3cccc3)n2)nc1` [5d], the “Ferric Reducing Antioxidant Power, TE” value in data set [1] is 1.47 ± 0.06. In addition, in [2], the “Propidium Displacement, (%)” value was 8.2 ± 0.6%. Besides, the results for the CC50 in [3] and in [5] were 189 ± 19.3 µM and 414 ± 18.6 µM, respectively. The “HsAβ42 self-Aggregation Inhibition, (%)” value in [4] worked out at 83.8 ± 4.2%. Moreover, the IC50 in [6] was found to be 4.86 ± 0.39 µM; in data set [7], 5.12 ± 0.41 µM; in data set [8], 20.8 ± 0.1 µM. Moreover, the “ABTS^•+-Scavenging Activity, TEAC” value in data set [8] amounted to 0.94 ± 0.05.
In the case of `C=C[c-]1cccc1.[Fe+2].c1ccc(-[c-]2cccc2)nc1` [7a, 1-(Pyridin-2-yl)-1′-Vinylferrocene], the “Ferric Reducing Antioxidant Power, TE” value in [1] is recorded as 2.13 ± 0.03. Also, the “Inhibition of SsCES, % inhibition at 20 μM” value in data set [9] is listed as 18.5 ± 1.6%. In [2], the “Propidium Displacement, (%)” value stood at 9.6 ± 0.7%. In addition, the “HsAβ42 self-Aggregation Inhibition, (%)” value in data set [4] is given as 84.6 ± 7.5%. Further, the IC50 in data set [6] amounted to 20.1 ± 1.6 µM; in data set [7] it was 16.5 ± 1.3 µM; in data set [8], 8.4 ± 0.3 µM. Moreover, the “Exp. ABTS, TEAC” value in data set [8] (Ethanol, Table 4) amounted to 2.60 ± 0.03. Besides, in data set [8], the “ABTS^•+-Scavenging Activity, TEAC” value is 2.60 ± 0.08.
`C=C[c-]1cccc1.[Fe+2].c1ccc(-c2cccc(-[c-]3cccc3)n2)nc1` [7d, 1-(2,2′-Bipyridin-6-yl)-1′-Vinylferrocene]: the “Ferric Reducing Antioxidant Power, TE” value in data set [1] was determined as 1.93 ± 0.06. Besides, the “Inhibition of SsCES, % inhibition at 20 μM” value in data set [9] is 5.8 ± 1.3%. The “Propidium Displacement, (%)” value in data set [2] is given as 9.7 ± 0.6%. Moreover, the CC50 in [3] was 158 ± 19.8 µM; in [5], 299 ± 21.9 µM. Further, the “HsAβ42 self-Aggregation Inhibition, (%)” value in data set [4] is listed as 81.5 ± 4.9%. The IC50 in [6] came out at 7.94 ± 0.55 µM; in [7], 6.34 ± 0.51 µM; in [8] it was 15.6 ± 0.7 µM. Further, the “ABTS^•+-Scavenging Activity, TEAC” value in [8] is listed as 1.36 ± 0.06.
With `[Fe+2].c1cc[cH-]c1.c1ccc2nc(-[c-]3cccc3)ccc2c1` [1b], the “Ferric Reducing Antioxidant Power, TE” value in [1] was 2.21 ± 0.01. Moreover, the “Inhibition of SsCES, % inhibition at 20 μM” value in data set [9] worked out at 29.8 ± 2.0%. Besides, the “Propidium Displacement, (%)” value in [2] was found to be 10.2 ± 0.8%. Also, the CC50 came to 243 ± 27.4 µM in data set [3] and 393 ± 13.2 µM in [5]. Besides, in [4], the “HsAβ42 self-Aggregation Inhibition, (%)” value is recorded as 79.5 ± 6.3%. Moreover, the IC50 in data set [6] came out at 2.7 ± 0.19 µM; in data set [7] it was 68.1 ± 3.4 µM; in [8], 6.6 ± 0.3 µM. In addition, in data set [8], the “ABTS^•+-Scavenging Activity, TEAC” value was 4.2 ± 0.2.
Take `CC(=C(c1ccc(O)cc1)c1ccc(O)cc1)[c-]1cccc1.[Fe+2].c1ccc2nc(-[c-]3cccc3)ccc2c1` [compound 11, 1-(quinolin-2-yl)-1’-{1-[bis(4-hydroxyphenyl)methylene]ethyl}ferrocene, reference compound]: the results for the CC50 (with MCF7 cell line; in data set [3]; in data set [5]) were 50.9 ± 3.65 µM, 57.8 ± 8.2 µM and 139 ± 15.7 µM, respectively.
As for `CC(=C(c1ccc(O)cc1)c1ccc(O)cc1)[c-]1cccc1.[Fe+2].c1cc[cH-]c1` [compound 10, 1,1-bis(4-hydroxyphenyl)-2-ferrocenylprop-1-ene, reference compound], the results for the CC50 (in the data set with MCF7 cell line; in data set [3]; in [5]) were 18.1 ± 2.1 µM, 43.4 ± 6.7 µM and 104 ± 12.3 µM, respectively.
Turning to `C=C(C)[c-]1cccc1.[Fe+2].c1ccc2nc(-[c-]3cccc3)ccc2c1` [5b], the “Ferric Reducing Antioxidant Power, TE” value in data set [1] came to 3.13 ± 0.17. In addition, in data set [9], the “Inhibition of SsCES, % inhibition at 20 μM” value is reported as 35.4 ± 2.8%. In [2], the “Propidium Displacement, (%)” value is on record as 11.5 ± 0.8%. Also, the CC50 was determined as 281 ± 30.1 µM in [3] and 564 ± 31.8 µM in [5]. Further, the “HsAβ42 self-Aggregation Inhibition, (%)” value in [4] was 82.9 ± 6.6%. Also, the results for the half-inhibitory concentration (IC50) in data set [6], in data set [7] and in data set [8] were 9.91 ± 0.69 µM, 4.01 ± 0.28 µM and 5.6 ± 0.3 µM, respectively. Besides, the “ABTS^•+-Scavenging Activity, TEAC” value in data set [8] is reported as 4.3 ± 0.2.
As for `CCC(=C(c1ccc(O)cc1)c1ccc(O)cc1)[c-]1cccc1.[Fe+2].c1cc[cH-]c1` [Ferrocifenol], the CC50 with MCF7 cell line was 0.9 µM.
Take `C=C[c-]1cccc1.[Fe+2].c1ccc2c(-[c-]3cccc3)c3ccccc3nc2c1` [7c, 1-(Acridin-9-yl)-1′-Vinylferrocene]: the “Ferric Reducing Antioxidant Power, TE” value in data set [1] was determined as 1.36 ± 0.01. Besides, in [9], the “Inhibition of SsCES, % inhibition at 20 μM” value is listed as 14.1 ± 1.5%. Besides, in data set [2], the “Propidium Displacement, (%)” value is reported as 10.4 ± 0.8%. Further, in data set [4], the “HsAβ42 self-Aggregation Inhibition, (%)” value is reported as 86.9 ± 6.1%. In data set [6] (setting [10]), the “Inhibition of EcBChE, % inhibition at 20 μM” value is given as 7.6 ± 1.1%. The “Inhibition of HsAChE, % inhibition at 20 μM” value in data set [7] (setting [10]) stood at 22.8 ± 1.8%. In data set [8], the IC50 worked out at 6.9 ± 0.3 µM and the “ABTS^•+-Scavenging Activity, TEAC” value is on record as 2.9 ± 0.1.
In the case of `[Fe+2].c1cc[cH-]c1.c1ccc(-c2cccc(-[c-]3cccc3)n2)nc1` [1d], the “Ferric Reducing Antioxidant Power, TE” value in [1] was 1.77 ± 0.04. The “Inhibition of SsCES, % inhibition at 20 μM” value in data set [9] is 20.9 ± 1.6%. The “Propidium Displacement, (%)” value in data set [2] was determined as 11.1 ± 0.9%. For the same compound, the figures for the CC50 in [3] and in data set [5] were 152 ± 21.2 µM and 632 ± 22.8 µM, respectively. Besides, the “HsAβ42 self-Aggregation Inhibition, (%)” value in data set [4] was found to be 63.7 ± 5.1%. The IC50 came out at 13.8 ± 1.2 µM in [6], 7.89 ± 0.63 µM in data set [7] and 20.6 ± 1.5 µM in data set [8]. In addition, the “ABTS^•+-Scavenging Activity, TEAC” value in data set [8] stood at 1.00 ± 0.04.

One may read the IC50 as the concentration needed to halve the response being measured.
